Data reported in patent publication US5098708A.
≈ marks a conversion by molar mass, not a printed value. Where two headings read alike, the source gives them in different places.

Assays:
[1] = test system: herpes simplex virus type 1 (HSV-1); experiment: microbe, parasite or virus in culture; assay type: cell-based; conditions: for ID50 HSV-Vero cell: Table 8, 72 hours incubation, 50% inhibition of cytopathic effect
influenza virus A = experiment: microbe, parasite or virus in culture; assay type: cell-based; conditions: 72 hours incubation, 50% inhibition of cytopathic effect; for ID50 Influenza virus-MDCK cell: Table 8; for IC50: unidentified influenza virus, MDCK, 72 h
HIV antigen = experiment: Expression of HIV antigen in infected MT-4 cells by immunofluorescence; assay type: cell-based
Protocol: Expression of HIV antigen was examined by immunofluorescence. When MT-4 cells were infected with HIV, viral antigen positive cells increased with incubation time and all the cells became positive on day 6 after infection.

[2] = test system: reverse transcriptase (RTase) derived from avian myeloblastosis virus (AMV); assay type: biochemical
[3] = Solubility in water and organic solvents; assay type: physicochemical
Vero cell = conditions: Table 8; 50% cytotoxicity against Vero cell without viral infection; 4320 min
uninfected CEM cells = conditions: human, 7200 min
Protocol: The cells and the virus were grown in LAV/CEM medium. The medium consists of RPMI 1640, supplemented with 1% L-glutamine, 100 U/ml of Penicillin, 100 μg/ml Streptomycin, 2 μg/ml Polybrene and 10% heat-inactivated fetal bovine serum (HyClone Labs).
The toxicities of the drugs were tested against uninfected CEM cells. The CEM cells were plated as described above, and culture for five days in the presence or absence of drugs. On day five 1 μCi/well of ^3 H-thymidine was added, and cells were harvested 3 hours later. The results are expressed as toxic dose 50 (TD50) and represent the amount of drug necessary to reduce the cell proliferation by 50% as measured through thymidine incorporation.

[4] = test system: human immunodeficiency virus (HIV) LAV/BRU; conditions: CEM-F cells; drug amount reducing viral replication by 50%
Protocol: AZT was included as a reference compound. The methodology used in this assay is described below:
The cells and the virus were grown in LAV/CEM medium. The medium consists of RPMI 1640, supplemented with 1% L-glutamine, 100 U/ml of Penicillin, 100 μg/ml Streptomycin, 2 μg/ml Polybrene and 10% heat-inactivated fetal bovine serum (HyClone Labs). […] The virus was adapted to CEM cells, and infectious virus stocks were stored as cell-free supernatant fluids in 1 ml aliquots in liquid nitrogen. The titer of the stock was determined by an end point titration method using CEM cells in 96-well microtiter plates. The titration was done with ten replicates for each point, and the 50% tissue culture infective dose (TCID50) was calculated using the method of Reed and Muench (Amer. J. Hygiene, 27/3 (1938) 493-497).
The CEM cells (1.5×10^5 cells/ml) were placed in 96-well plates and incubated with virus for 45 minutes. After 45 minutes each compound was added in quadruplicate. At the end of the day, six supernatants were tested for presence of viral core protein p24gag in an antigen capture ELISA (Genetic Systems Company). The OD readings (absorbance at 450/630 nm) fall into three categories: Experimentals=values from wells containing cells, viral inoculum and drug; Controls=values from wells with cells and virus (100%); and Background=values from wells with viral inoculum alone. […]

[5] = test system: Madin Darby canine kidney (MDCK) cell; experiment: Drug-induced cytotoxicity against MDCK cells without viral infection (dye-uptake assay); conditions: Table 8; 50% cytotoxicity against MDCK cell without viral infection; 4320 min
[6] = test system: human immunodeficiency virus (LAVBRU strain); experiment: Anti-HIV XTT assay in CEM-SS cells; assay type: cell-based; conditions: Human immunodeficiency virus 1, 144 h, six days post infection, read-out: ED50 (XTT assay)
Source text: The antiviral effect is expressed as the concentration of compound which increases the number of viable cells in infected cultures to 50% that of the untreated, uninfected control cultures (ED50) The cellular toxicity is expressed as the concentration of compound which reduces the number of viable cells to 50% that of the untreated control (TD50).

[7] = Cellular toxicity in CEM-SS cells (XTT assay); assay type: cell-based; conditions: human
Source text: CEM-SS cells were obtained from Owen Weislow at the National Cancer Institute.

in vitro = conditions: monkey, vero cells
[8] = Drug-induced cytotoxicity against MDCK cells without viral infection (dye-uptake assay); conditions: dog, mdck cells, TD50 Influenza virus-MDCK cell

Row | Structure (SMILES) | ID50 HSV-Vero cell [1] | ID50 Influenza virus-MDCK cell (influenza virus A) | Solubility in acetone [3] | Solubility in dimethylformamide and dimethyl sulfoxide [3] | Solubility in methanol [3] | Solubility in other organic solvents [3] | Solubility in water [3] | TD50 HSV-Vero cell (Vero cell) | TD50 (thymidine incorporation) (uninfected CEM cells) | ED50 (p24gag antigen capture assay) [4] | TD50 Influenza virus-MDCK cell [5] | also measured
1 | C/C1=C\C=C\C2(C)C=C(CO[C@H]3O[C@H](CO)[C@H](O)[C@H](O)[C@H]3O)C(C)CC23OC(O)C(C3=O)C(O)/C=C/C2(C)C=C(C=O)C(C)CC23OC(O)C(C3=O)C(O)/C(C)=C/C=C/C2C=C(CO[C@H]3O[C@H](CO)[C@H](O)[C@H](O)[C@H]3O)C(C)CC23OC(O)C(C3=O)C(O)/C=C/C2(C)C=C(C=O)C(C)CC23OC(O)C(C3=O)C1O (stereo partly shown) | 11 µg/mL (≈ 7.3 µM) | 150 µg/mL (≈ 99.5 µM) | slightly soluble | soluble | slightly soluble | practically insoluble | soluble | > 400 µg/mL | > 100 µg | 3.2 µg | 250 µg/mL | HIV antigen positive cells (suppression) (HIV antigen; HIV-infected MT-4 cells cultured in the presence of compound): significantly suppressed; HIV antigen positive cells (HIV antigen; HIV-infected MT-4 cells, concentration higher than 50 μg/ml, FIG. 10): less than 1%; AMV reverse transcriptase % inhibition ([2]; 3 μg/ml): 96.9%; AMV reverse transcriptase activity, count ([2]; 3 μg/ml): 1,584 ± 1,292 cpm; AMV reverse transcriptase % inhibition ([2]; 6 μg/ml): 98.1%; AMV reverse transcriptase activity, count ([2]; 6 μg/ml): 976 ± 145 cpm; AMV reverse transcriptase % inhibition ([2]; 12.5 μg/ml): 98.2%; AMV reverse transcriptase activity, count ([2]; 12.5 μg/ml): 920 ± 271 cpm; AMV reverse transcriptase % inhibition ([2]; 25 μg/ml): 98.8%; AMV reverse transcriptase activity, count ([2]; 25 μg/ml): 621 ± 402 cpm; AMV reverse transcriptase % inhibition ([2]; 50 μg/ml): 99.5%; AMV reverse transcriptase activity, count ([2]; 50 μg/ml): 235 ± 73 cpm; AMV reverse transcriptase % inhibition ([2]; 100 μg/ml): 99.7%; AMV reverse transcriptase activity, count ([2]; 100 μg/ml): 159 ± 14 cpm; Inhibition of 1 unit of AMV RTase activity ([2]; concentrations higher than 3 μg/ml): more than 95%
2 | C/C1=C\C=C\C2C=C(CO[C@H]3O[C@H](CO)[C@H](O)[C@H](O)[C@H]3O)C(C)CC23OC(O)C(C3=O)C(O)/C=C/C2(C)C=C(CO)C(C)CC23OC(O)C(C3=O)C(O)/C(C)=C/C=C/C2(C)C=C(CO[C@H]3O[C@H](CO)[C@H](O)[C@H](O)[C@H]3O)C(C)CC23OC(O)C(C3=O)C(O)/C=C/C2(C)C=C(C=O)C(C)CC23OC(O)C(C3=O)C1O (stereo partly shown) | 11 µg/mL (≈ 7.29 µM) | > 150 µg/mL | slightly soluble | soluble | slightly soluble | practically insoluble | soluble | > 200 µg/mL | > 100 µg | 2.5 µg | 150 µg/mL | –
3 | Cc1cn([C@H]2C[C@H](N=[N+]=[N-])[C@@H](CO)O2)c(=O)[nH]c1=O [AZT] | – | – | – | – | – | – | – | – | 4.2 µg | – | – | EC50 [6]: 0.005 µg/mL (≈ 0.0187 µM); CC50 at 144 h [7]: > 500 µg/mL
4 | Nc1nc2c(ncn2COCCO)c(=O)[nH]1 [Acyclovir] | – | – | – | – | – | – | – | – | – | – | – | IC50 ([1]; Human alphaherpesvirus 1, Vero, 72 h, read-out: ID50 HSV-Vero cell): 0.09 µg/mL (≈ 0.4 µM); CC50 at 72 h (in vitro): > 100 µg/mL
5 | NC(=O)c1ncn([C@@H]2O[C@H](CO)[C@@H](O)[C@H]2O)n1 [Ribavirin, reference compound] | – | – | – | – | – | – | – | – | – | – | – | IC50 (influenza virus A; read-out: ID50 Influenza virus-MDCK cell, Table 8): 15 µg/mL (≈ 61.4 µM); IC50 (influenza virus A; read-out: ID50 Influenza virus-MDCK cell, Table 10): 9.5 µg/mL (≈ 38.9 µM); CC50 at 72 h ([8]; Table 8, 50% cytotoxicity against MDCK cell without viral infection): > 200 µg/mL; CC50 at 72 h ([8]; Table 10, 50% cytotoxicity against MDCK cells without viral infection): > 100 µg/mL
